Source: patent publication US7662854B2, “HIF hydroxylase inhibitors” (ISIS Innovation Limited, priority 2002, dated 2010)

Experiments:
[1] = system: HIF hydroxylases; assay: assays in which the compound replaces 2-oxoglutarate as co-substrate; format: biochemical; conditions: compared with 2-oxoglutarate under analogous conditions
From the text: Another aspect of the invention concerns analogues of 2-oxoglutarate that act as improved (relative to 2-oxoglutarate) co-substrates for the HIF hydroxylases. Such a compound is 3-fluoro 2-oxoglutarate.

[2] = system: HIF hydroxylase; assay: capture assay for inhibitors of HIF modification (pVHL capture); format: biochemical; conditions: result in words; screening at 2 mM of the potential inhibitor, RCC4 cell extract, 100 μM FeCl2
Experimental: In vitro screening of potential inhibitors of HIF modification was performed using a capture assay. A Gal/HIF-1α/VP16 fusion protein expressing HIF-1α residues 549-582 was prepared by IVTT (see British Application No. 0118952.1) and used as a substrate in the assay. The unlabelled substrate was immunopurified on beads, washed, and aliquots incubated in the presence of RCC4 cell extract, with 100 μM FeCl2 and 2 mM of the potential inhibitor. The inhibitors were either dissolved in DMSO or Tris as indicated. Controls, where no inhibitor but the equivalent amount of DMSO or Tris was added, were also performed. After washing, the beads were assayed for their ability to interact with 35-S labelled pVHL IVTT. Hydroxylation of the fusion protein by HIF hydroxylase present in the cell extract leads to the ability to capture the labelled pVHL and the amount of labelled protein bound to the fusion protein can then be measured to determine relative HIF hydroxylase activity. FIGS. 1 to 5 show HIF hydroxylase activity in the presence of a particular inhibitor relative to that seen in the absence of the inhibitor (the DMSO/Tris control).

Row | Structure (SMILES) | level of HIF hydroxylation [1] | activity as modulator of HIF prolyl hydroxylase [2]
1 | O=C(O)CC(F)C(=O)C(=O)O (centres unmarked) [3-fluoro 2-oxoglutarate, 3-fluoro-2-oxoglutaric acid] | higher level of HIF hydroxylation | 
2 | O=C(O)CC1CC(=O)N(O)C1=O (centres unmarked) [Is52, (1-hydroxy-2,5-dioxo-pyrrolidin-3-yl) acetic acid] |  | highly active
